Measured values published in paper PMC11483378, “Triazole-Based Thiamine Analogues as Inhibitors of Thiamine Pyrophosphate-Dependent Enzymes: 1,3-Dicarboxylate for Metal Binding” (ACS Omega, 2024).
“And” between values parts separate entries of the source, which are not always exact repeats. Identical values can stand only once. Like-named read-outs stand apart in the source and are kept apart here.

Legend:
[1] = target: E. coli OGDH E1 (Escherichia coli, UniProt P0AFG3); test: E. coli OGDH E1 inhibitory activity assay (DCPIP reduction); assay type: biochemical
E. coli OGDH E1, sequence (P0AFG3 whole entry): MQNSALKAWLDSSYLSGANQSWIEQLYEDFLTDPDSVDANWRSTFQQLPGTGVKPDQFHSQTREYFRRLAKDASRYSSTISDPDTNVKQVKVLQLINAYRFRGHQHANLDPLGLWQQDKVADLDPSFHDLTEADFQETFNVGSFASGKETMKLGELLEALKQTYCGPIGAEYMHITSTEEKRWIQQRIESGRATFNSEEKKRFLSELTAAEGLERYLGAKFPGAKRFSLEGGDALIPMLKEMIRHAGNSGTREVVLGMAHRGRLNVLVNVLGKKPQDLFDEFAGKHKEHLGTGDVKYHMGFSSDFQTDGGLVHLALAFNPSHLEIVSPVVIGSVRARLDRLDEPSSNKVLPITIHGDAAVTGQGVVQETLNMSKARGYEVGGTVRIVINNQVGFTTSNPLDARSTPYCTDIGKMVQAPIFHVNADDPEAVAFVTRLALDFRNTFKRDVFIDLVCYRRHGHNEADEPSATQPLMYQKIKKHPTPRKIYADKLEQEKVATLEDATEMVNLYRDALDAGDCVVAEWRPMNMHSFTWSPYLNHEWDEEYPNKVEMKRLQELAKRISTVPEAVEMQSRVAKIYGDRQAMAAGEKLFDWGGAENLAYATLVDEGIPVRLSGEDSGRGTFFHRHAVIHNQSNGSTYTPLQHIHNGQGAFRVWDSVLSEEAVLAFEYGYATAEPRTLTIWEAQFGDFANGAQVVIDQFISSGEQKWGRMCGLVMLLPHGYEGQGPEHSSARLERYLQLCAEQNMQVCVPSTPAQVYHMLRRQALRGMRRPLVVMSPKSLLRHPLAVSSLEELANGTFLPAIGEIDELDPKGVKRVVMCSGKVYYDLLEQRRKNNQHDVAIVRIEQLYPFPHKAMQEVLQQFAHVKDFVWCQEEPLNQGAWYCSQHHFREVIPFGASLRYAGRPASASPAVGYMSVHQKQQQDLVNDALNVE
Experimental: E. coli OGDH E1 was from material donated by R. Frank. E. coli OGDH E1 activity was determined by monitoring DCPIP reduction at 600 nm using a microplate reader (CLARIOstar) and conducted as described[5] with some modifications. […] The reaction buffer (50 mM KH2PO4 and 2 mM MgCl2, pH 7) contained TPP at specified concentrations, 0.5 mM DCPIP, and 6.7 mg/mL E. coli OGDH E1. The reaction mixture was preincubated at 37 °C with the inhibitor for 60 min, and then the reaction was initiated by adding α-ketoglutarate to a final concentration of 10 mM. To determine the IC50, the TPP concentration was set at 60 μM with varying inhibitor concentrations. Specific activity was calculated using the molar extinction coefficient of DCPIP, 21 mM^–1 cm^–1.[28] The IC50 values were calculated from nonlinear regression curve fitting using GraphPad Prism.
(§1) Enzyme inhibitory activity assays – methods and results (Figures S1-4) […]
(§2) The compound […]
E. coli OGDH E1 inhibitory activity assay. E. coli OGDH E1 was from material donated by R. Frank. E. coli OGDH E1 activity was determined by monitoring DCPIP reduction at 600 nm using a microplate reader (CLARIOstar) and conducted as described3 with some modifications. The percentage inhibition of compounds against E. coli OGDH E1 was assayed at 250 μM. The reaction buffer (50 mM KH 2PO4 and 2 mM MgCl2, pH 7) contained TPP at specified concentrations, 0.5 mM DCPIP, and 6.7 mg/ml E. coli OGDH E1. The reaction mixture was preincubated at 37 °C with the inhibitor for 60 min, then reaction was initiated by adding α-ketoglutarate to a final concentration of 10 mM. To determine the IC50, TPP concentration was set at 60 µM with varying inhibitor concentrations. Specific activity was […]

[2] = target: T1, S. cerevisiae PDC (Saccharomyces cerevisiae, UniProt P06169); test: S. cerevisiae PDC inhibitory activity assay (DCPIP reduction); assay type: biochemical; conditions: for % Inhibition (5:1): [Compound] = 750 μM, [TPP] = 150 μM; for inhibition at 750 µM: [Compound] = [TPP] = 750 μM, read-out: % Inhibition (1:1)
T1 construct: purchased Sigma
T1 sequence (P06169 2-563 limits assumed): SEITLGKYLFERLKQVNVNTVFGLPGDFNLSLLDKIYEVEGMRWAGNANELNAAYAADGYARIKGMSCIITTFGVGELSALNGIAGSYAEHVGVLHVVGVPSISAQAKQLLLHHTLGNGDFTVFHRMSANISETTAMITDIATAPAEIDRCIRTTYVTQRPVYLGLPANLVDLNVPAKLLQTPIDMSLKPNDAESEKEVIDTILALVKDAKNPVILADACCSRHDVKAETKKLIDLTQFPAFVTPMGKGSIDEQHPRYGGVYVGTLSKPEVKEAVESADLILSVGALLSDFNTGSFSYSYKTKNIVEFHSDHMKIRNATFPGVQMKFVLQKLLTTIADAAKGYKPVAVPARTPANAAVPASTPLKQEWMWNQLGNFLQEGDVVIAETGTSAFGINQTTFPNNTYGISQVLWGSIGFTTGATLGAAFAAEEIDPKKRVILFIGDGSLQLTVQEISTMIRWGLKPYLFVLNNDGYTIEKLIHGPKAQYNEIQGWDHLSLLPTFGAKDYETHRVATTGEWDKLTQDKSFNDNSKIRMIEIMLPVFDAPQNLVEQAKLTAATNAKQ
Experimental: S. cerevisiae PDC was purchased from Sigma. S. cerevisiae PDC activity was determined by monitoring DCPIP reduction at 600 nm using a microplate reader (CLARIOstar) and conducted as described[5] with some modifications. […] The reaction buffer (50 mM KH2PO4 and 1 mM MgCl2, pH 7) contained TPP at specified concentrations, 0.27 mM DCPIP, and 0.15 mg/mL S. cerevisiae PDC. The reaction mixture was preincubated at 37 °C with the inhibitor for 60 min, and then the reaction was initiated by adding pyruvate to a final concentration of 70 mM. […] Specific activity was calculated using the molar extinction coefficient of DCPIP, 21 mM^–1 cm^–1.[28] The IC50 values were calculated from nonlinear regression curve fitting using GraphPad Prism.
as §1, §2
S. cerevisiae PDC inhibitory activity assay. S. cerevisiae PDC was purchased from Sigma. S. cerevisiae PDC activity was determined by monitoring DCPIP reduction at 600 nm using a microplate reader (CLARIOstar) and conducted as described3 with some modifications. The percentage inhibition of compounds against S. cerevisiae PDC was assayed at 750 μM. The reaction buffer (50 mM KH 2PO4 and 1 mM MgCl2, pH 7) contained TPP at specified concentrations, 0.27 mM DCPIP, and 0.15 mg/ml S. cerevisiae PDC. The reaction mixture was preincubated at 37 °C with the inhibitor for 60 min, then reaction was initiated by adding pyruvate to a final concentration of 70 mM. To determine the IC50, TPP concentration was set at 150 µM with varying inhibitor concentrations. Specific activity was […]
calculated from non-linear regression curve fitting using GraphPad Prism. […]

[3] = [Compound] = 250 μM, [TPP] = 50 μM
[4] = [Compound] = [TPP] = 250 μM; read-out: % Inhibition (1:1)
[5] = [TPP] = 60 µM; read-out: IC50 (μM ± SEM)
[6] = calculated from KM(TPP) 3 µM using [TPP]/IC50 = KM(TPP)/KI; read-out: KI
[7] = calculated from KM(TPP) 3 µM using [TPP]/IC50 = KM(TPP)/KI
[8] = read-out: IC50 (μM ± SEM); [TPP] = 60 µM
[9] = calculated from KM(TPP) 15 µM using [TPP]/IC50 = KM(TPP)/KI
[10] = read-out: IC50 (μM ± SEM), [TPP] = 150 µM

Row | Structure (SMILES) | % Inhibition (5:1) [1, 3] | inhibition at 250 µM [1, 4] | vs TPP: affinity of the compound relative to that of TPP (= [TPP]/IC50) ([1]; [TPP] = 60 µM) | IC50 [1, 5] | Ki [1, 6] | IC50 [2] | Ki [2] | % Inhibition (5:1) [2] | inhibition at 750 µM [2] | vs TPP: affinity of the compound relative to that of TPP (= [TPP]/IC50) ([2]; [TPP] = 150 µM) | Ki [1, 7] | IC50 [1, 8] | Ki [2, 9] | IC50 [2, 10]
1 | COC(=O)C(CCCc1cn(Cc2cnc(C)nc2N)nn1)C(=O)OC [13b] | 54 ± 3% | 23 ± 4% | 0.24 | 251 ± 37 µM | 13 µM | 713 ± 139 µM | 71 µM | 52 ± 3% | 21 ± 5% | 0.21 |  |  |  | 
2 | Cc1ncc(Cn2cc(CCCC(C(=O)[O-])C(=O)[O-])nn2)c(N)n1.[K+].[K+] [14b] | 83 ± 4% | 47 ± 3% | 0.90 |  |  |  |  | 79 ± 3% | 42 ± 3% | 0.7 and 0.71 | 3.4 µM | 67 ± 9 µM | 21 µM | 211 ± 39 µM
3 | Cc1ncc(Cn2cc(CCCCC(=O)[O-])nn2)c(N)n1.[K+] [16b] | 54 ± 4% | 22 ± 5% | 0.22 |  |  |  |  | 60 ± 4% | 25 ± 5% | 0.30 | 14 µM | 273 ± 44 µM | 50 µM | 503 ± 76 µM
4 | COC(=O)CCCc1cn(Cc2cnc(C)nc2N)nn1 [15a] | 38 ± 3% | < 20% | 0.15 | 407 ± 73 µM | 20 µM | 883 ± 144 µM | 88 µM | 42 ± 3% | < 20% | 0.17 |  |  |  | 
5 | Cc1ncc(Cn2cc(CCCC(=O)[O-])nn2)c(N)n1.[K+] [16a] | 49 ± 3% | < 20% | 0.19 |  |  |  |  | 55 ± 4% | 24 ± 4% | 0.26 | 16 µM | 316 ± 57 µM | 58 µM | 582 ± 88 µM
6 | Cc1ncc(Cn2cc(CCC(C(=O)[O-])C(=O)[O-])nn2)c(N)n1.[K+].[K+] [14a] | 76 ± 5% | 36 ± 4% | 0.57 |  |  |  |  | 70 ± 2% | 31 ± 3% | 0.47 | 5.3 µM | 105 ± 11 µM | 32 µM | 319 ± 57 µM
7 | COC(=O)CCCCc1cn(Cc2cnc(C)nc2N)nn1 [15b] | 42 ± 4% | < 20% | 0.17 | 353 ± 29 µM | 18 µM | 789 ± 167 µM | 79 µM | 47 ± 4% | < 20% | 0.19 |  |  |  | 
8 | COC(=O)C(CCc1cn(Cc2cnc(C)nc2N)nn1)C(=O)OC [13a] | 40 ± 3% | < 20% | 0.15 | 394 ± 65 µM | 20 µM | 939 ± 167 µM | 94 µM | 40 ± 4% | < 20% | 0.16 |  |  |  | 
